Values after ≈ are worked out from the molar mass of the structure shown. Structures can show the parent of a compound that is named as a salt. Where two headings read alike, the source gives them in different places.
Experiments:
[1] = Aqueous stability assay (HPLC, pseudo first-order half-life); assay type: physicochemical; settings: DPBS pH 7.0-7.3, 1 mg/mL, room temperature; for half-life / half-life at 1 mg/mL: buffer, read-out: PBS t1/2 (converted)
Procedure: Aqueous stability experiments were performed on an Agilent 1100 HPLC equipped with an Agilent 1200 autosampler. HPLC grade solvents were exclusively used during analysis, with acetonitrile being purchased from Sigma Aldrich, and water and formic acid provided by Fisher Scientific. […]
[…] All mixtures were then sonicated for 5 min or stirred until complete dissolution was achieved. Any precipitate observed in sample solutions was filtered with a PTFE syringe filter prior to analysis. Immediately after sample preparation, injection by the HPLC autosampler was performed, which was recorded as the initial time point (t=0 min). Samples were then kept in the autosampler at room temperature and injected at designated intervals without additional filtration or sample modification. Next, the area of the parent peak in each chromatogram was determined by automated integration in the Agilent ChemStation software. Pseudo first-order half-lives were then ascertained by calculating the percent of the parent compound remaining after each time point. Plots of time (x-axis) vs. the natural logarithm of percent parent remaining (y-axis) were subsequently constructed to determine the slope. Finally, the aqueous stability was evaluated using the following equation:
The HPLC conditions were as follows: injection volume, 1 μL; column temperature: 40° C.; detector: 254 nm; stationary phase: Zorbax Eclipse XDB-C18 (4.6×150 mm, 5 μm); flow rate: 1 mL/min; mobile phase: 80-95% acetonitrile in H2O (0.1% formic acid).

[2] = Plasma stability assay (LC-MS/MS); assay type: in vitro ADME; settings: human plasma, 37° C., 3 μM; for half-life at 3 µM: read-out: Plasma t1/2 (converted)
Procedure: Procaine and procainamide were purchased from Sigma Aldrich. HPLC-grade acetonitrile, water, methanol, and formic acid were purchased from Fisher Scientific. Human plasma (Cat. No. […]2N) was obtained from BIOIVT, and PBS (1×Dulbecco's, pH 7.4) from Thermo Fisher Scientific.
Test compounds were dissolved in DMSO to make a stock solution of 10 mM and then diluted to 500 μM in buffer or 70% methanol. Human plasma was thawed at ambient temperature and aliquoted (994.0 μL) to a 1.5 mL Eppendorf tube in duplicates (vials A and B) for each compound. The plasma was incubated at 37° C. for 10 min in an incubator shaker at 150 RPM; the reaction was initiated by addition of the test compound (6.0 μL), followed by vortex mixing. The total reaction volume was 1000 μL, the final organic solvent concentrations were […] (when 70% methanol was used for dilution) and 0.03% DMSO, and the final concentration of the test compound was 3 μM. The spiked plasma samples were incubated at 37° C. for 4 h. The reactions were terminated at time point 0, 15, 30, 60, 120, 180, and 240 min by taking a 100 μL aliquot from the test incubation mixture and immediately quenching it by adding it into ice-cold acetonitrile or methanol (150 μL) containing 2 μM internal standard (ISTD), followed by vortex mixing. The ISTD was d5-7-ethoxy coumarin. The samples were then centrifuged at 15000 RPM for 25 min at 4° C., and the supernatant was transferred to an LC-MS vial for analysis by LC-MS/MS. Each time point was tested in duplicates followed by in-between blank washes to avoid carryover and to equilibrate the column.
Procaine (poor plasma stability) and procainamide (good plasma stability) were used as controls at the same concentration as that of the test compound. These controls were run in parallel to test the assay's competency. Matrix blank was prepared by adding acetonitrile or methanol containing ISTD to plasma samples without any of the test or control compounds. Also, an additional control sample was made to simply monitor compound degradation in PBS buffer.
Below is a summary of samples prepared for a given test compound in a typical plasma stability assay: • Test compound (TC): 994 μL human plasma+6.0 μL TC (Vial A) 994 μL human plasma+6.0 μL TC (Vial B) • Control: 596 μL human plasma+3.6 μL (procaine+procainamide) • Blank matrix: 500 μL PBS buffer+100 μL human plasma • Additional control: 142 μL PBS buffer+0.9 μL TC • Quenching mixture: 150 μL acetonitrile or methanol with ISTD (2 μM) • Final volume: 250 μL (100 μL from the incubation mixture+150 μL quenching mixture; final ISTD conc.: 1.2 μM)
LC-MS/MS analysis was performed using Agilent 1260 Infinity II HPLC, coupled with an Agilent G6460 triple quadrupole mass spectrometer (Agilent Technologies, USA). The data were acquired and processed using the Agilent 6460 Quantitative Analysis data processing software.
Reverse-phase HPLC separation for each compound was achieved on an Agilent InfinityLab Poroshell 120 C18 column (2.1×50 mm, 2.7 μm) with a mobile phase composed of methanol/water with 0.1% formic acid or acetonitrile/water with 0.1% formic acid at a flow rate of 0.5 mL/min. Each method was developed in the presence of the ISTD. The column temperature was maintained at 40° C. The detection was operated using the Agilent Jet-Stream electrospray positive ionization under the multiple reaction monitoring mode. The mass spec conditions were as follows: dwell time 100 ms; gas flow 10 L/min; nebulizer pressure 45 psi; delta EMV 200 V.
Plots of time (x-axis) vs. the natural logarithm of percent parent remaining (y-axis) were subsequently constructed to determine the slope. Finally, the plasma stability was evaluated using the following equation: […]

[3] = Nephelometry (aqueous solubility); assay type: physicochemical; settings: DPBS with 1% DMSO, aqueous buffer, kinetic from dmso stock, DPBS pH 7.0-7.3, 1% DMSO, 25° C.
Description: Well A1 of the plate contained 100% DMSO.

In the case of `C/C(=N\OC(=O)N(CCNC(C)C)C(C)C)[C@H]1CC[C@H]2[C@@H]3CCC4=CC(=O)CC[C@]4(C)[C@H]3CC[C@]12C.Cl` [54b, (E)-2-((8S,9S,10R,13S,14S,17S)-10,13-dimethyl-3-oxo-2,3,6,7,8,9,10,11,12,13,14,15,16,17-tetradecahydro-1H-cyclopenta[a]phenanthren-17-yl)-6-isopropyl-10-methyl-4-oxa-3,6,9-triazaundec-2-en-5-one hydrochloride], the half-life [1] is reported as greater than 24 h, the “Plasma % rmn at 2 h” value [2] is reported as 84% and the solubility at 90 min [3] is reported as greater than 500 µM.
With `C/C(=N\OC(=O)N(CCO)CCNCCO)[C@H]1CC[C@H]2[C@@H]3CCC4=CC(=O)CC[C@]4(C)[C@H]3CC[C@]12C.Cl` [54d, (E)-2-((8S,9S,10R,13S,14S,17S)-10,13-dimethyl-3-oxo-2,3,6,7,8,9,10,11,12,13,14,15,16,17-tetradecahydro-1H-cyclopenta[a]phenanthren-17-yl)-11-hydroxy-6-(2-hydroxyethyl)-4-oxa-3,6,9-triazaundec-2-en-5-one hydrochloride] the “PBS t1/2” value [1] was 28.79 ± 3.16 h, the “Plasma % rmn at 2 h” value [2] was 32% and the solubility at 90 min [3] was greater than 750 µM.
For `CNCCN(C(=O)O/N=C(\C)[C@H]1CC[C@H]2[C@@H]3CCC4=CC(=O)CC[C@]4(C)[C@H]3CC[C@]12C)C1CC1.O=C(O)C(F)(F)F` [53b, (E)-5-cyclopropyl-9-((8S,9S,10R,13S,14S,17S)-10,13-dimethyl-3-oxo-2,3,6,7,8,9,10,11,12,13,14,15,16,17-tetradecahydro-1H-cyclopenta[a]phenanthren-17-yl)-7-oxa-2,5,8-triazadec-8-en-6-one 2,2,2-trifluoroacetate], the “PBS t1/2” value [1] was 28.16 ± 0.04 h, the “Plasma % rmn at 2 h” value [2] was 45% and the solubility at 90 min [3] was greater than 750 µM.
`C/C(=N\OC(=O)NC[C@@H]1CCCN1)[C@H]1CCC2[C@@H]3CCC4=CC(=O)CC[C@]4(C)[C@H]3CC[C@@]21C` (stereo partly drawn) [32g, (8S,9S,10R,13S,17S)-10,13-dimethyl-17-((E)-1-((((((S)-pyrrolidin-2-yl)methyl)carbamoyl)oxy)imino)ethyl)-1,2,6,7,8,9,10,11,12,13,14,15,16,17-tetradecahydro-3H-cyclopenta[a]phenanthren-3-one hydrochloride] gave a half-life at 1 mg/mL ([1]; d (days)) of 396 h, a half-life at 3 µM [2] of 9.6 h and a solubility at 90 min [3] greater than 750 µM.
In the case of `CNCCN(C(=O)O/N=C(\C)[C@H]1CC[C@H]2[C@@H]3CCC4=CC(=O)CC[C@]4(C)[C@H]3CC[C@]12C)C(C)C.O=C(O)C(F)(F)F` [53a, (E)-9-((8S,9S,10R,13S,14S,17S)-10,13-dimethyl-3-oxo-2,3,6,7,8,9,10,11,12,13,14,15,16,17-tetradecahydro-1H-cyclopenta[a]phenanthren-17-yl)-5-isopropyl-7-oxa-2,5,8-triazadec-8-en-6-one 2,2,2-trifluoroacetate], the “PBS t1/2” value [1] is reported as 19.72 ± 0.38 h, the “Plasma % rmn at 2 h” value [2] is reported as 41% and the solubility at 90 min [3] is reported as greater than 750 µM.
`CNCCN(CCO)C(=O)O/N=C(\C)[C@H]1CC[C@H]2[C@@H]3CCC4=CC(=O)CC[C@]4(C)[C@H]3CC[C@]12C` [32c, 2-((((((E)-1-((8S,9S,10R,13S,14S,17S)-10,13-dimethyl-3-oxo-2,3,6,7,8,9,10,11,12,13,14,15,16,17-tetradecahydro-1H-cyclopenta[a]phenanthren-17-yl)ethylidene)amino)oxy)carbonyl)(2-hydroxyethyl)amino)-N-methylethan-1-aminium chloride] showed a half-life at 1 mg/mL [1] of 24.8 ± 1.1 h, a half-life at 3 µM [2] of 1.7 h and a solubility at 90 min [3] greater than 500 µM.
For `C/C(=N\OC(=O)N(C)CCNCCO)[C@H]1CC[C@H]2[C@@H]3CCC4=CC(=O)CC[C@]4(C)[C@H]3CC[C@]12C` [32d, 2-((((((E)-1-((8S,9S,10R,13S,14S,17S)-10,13-dimethyl-3-oxo-2,3,6,7,8,9,10,11,12,13,14,15,16,17-tetradecahydro-1H-cyclopenta[a]phenanthren-17-yl)ethylidene)amino)oxy)carbonyl)(methyl)amino)-N-(2-hydroxyethyl)ethan-1-aminium chloride], the half-life [1] was 30.4 ± 5 h, the “Plasma t1/2” value [2] was 2.8 h and the solubility at 90 min [3] was greater than 500 µM.
For `CNCCN(C(=O)O/N=C(\C)[C@H]1CC[C@H]2[C@@H]3CCC4=CC(=O)CC[C@]4(C)[C@H]3CC[C@]12C)C1CCCC1.O=C(O)C(F)(F)F` [53d, (E)-5-cyclopentyl-9-((8S,9S,10R,13S,14S,17S)-10,13-dimethyl-3-oxo-2,3,6,7,8,9,10,11,12,13,14,15,16,17-tetradecahydro-1H-cyclopenta[a]phenanthren-17-yl)-7-oxa-2,5,8-triazadec-8-en-6-one 2,2,2-trifluoroacetate], the “PBS t1/2” value [1] was 10.70 ± 0.15 h, the “Plasma % rmn at 2 h” value [2] was 65% and the solubility at 90 min [3] was greater than 750 µM.
In the case of `C/C(=N\OC(=O)N(CCN)CCN)[C@H]1CC[C@H]2[C@@H]3CCC4=CC(=O)CC[C@]4(C)[C@H]3CC[C@]12C.O=C(O)C(F)(F)F.O=C(O)C(F)(F)F` [53j, (8S,9S,10R,13S,14S,17S)-17-((E)-1-(((bis(2-aminoethyl)carbamoyl)oxy)imino)ethyl)-10,13-dimethyl-1,2,6,7,8,9,10,11,12,13,14,15,16,17-tetradecahydro-3H-cyclopenta[a]phenanthren-3-one bis(2,2,2-trifluoroacetate)], the “PBS t1/2” value [1] is reported as 10.13 ± 0.41 h and the solubility at 90 min [3] is reported as greater than 750 µM.
With `CNCCN(CCNC)C(=O)O/N=C(\C)[C@H]1CC[C@H]2[C@@H]3CCC4=CC(=O)CC[C@]4(C)[C@H]3CC[C@]12C.Cl.Cl` [53i, (E)-9-((8S,9S,10R,13S,14S,17S)-10,13-dimethyl-3-oxo-2,3,6,7,8,9,10,11,12,13,14,15,16,17-tetradecahydro-1H-cyclopenta[a]phenanthren-17-yl)-5-(2-(methylamino)ethyl)-7-oxa-2,5,8-triazadec-8-en-6-one dihydrochloride] the “PBS t1/2” value [1] was 1.51 ± 0.05 h and the solubility at 90 min [3] was greater than 750 µM.
With `C/C(=N\OC(=O)N(C)CCO)[C@H]1CC[C@H]2[C@@H]3CCC4=CC(=O)CC[C@]4(C)[C@H]3CC[C@]12C` [compound 33, (8S,9S,10R,13S,14S,17S)-17-((E)-1-((((2-hydroxyethyl)(methyl)carbamoyl)oxy)imino)ethyl)-10,13-dimethyl-1,2,6,7,8,9,10,11,12,13,14,15,16,17-tetradecahydro-3H-cyclopenta[a]phenanthren-3-one] the half-life [1] was 38.5 h and the solubility at 90 min [3] was 124 ± 3.28 µM (≈ 53.3 µg/mL).
